From patent US20070128669A1, “Serum-free expansion of cells in culture” (Institute for Chemical Genomics, priority 2005, published 2007)

Experiments:
[1] = test system: Nanog gene expression in ESCs; assay: Real-time RT-PCR for Nanog in feeder-free ESCs; format: cell-based, mouse
Experimental: FIG. 2. […] Real-time RT-PCR for Nanog was performed. The control expression level of Nanog at day 0 was set at 1. FIG. 2B, removal of IQ-1 decreases Nanog gene expression in ESCs. IQ-1 was removed from ESCs which had been cultured under feeder-free system and in the presence of IQ-1 (4 μg/ml), for three days. At the end of this period, mRNA was isolated and real-time RT-PCR was performed to assay for Nanog gene expression. FIG. 2C, effects of IQ-1 were not mediated through Stat3 signaling pathway as judged by luciferase reporter assay. Feeder-free ESCs, transfected with the pSTAT3-TA-Luc reporter, were exposed to IQ-1 at the indicated doses, or LIF. All error bars represent mean±SD.
Real-time RT-PCR. Total RNA was isolated and reverse-transcribed using SuperScript III (Invitrogen). Real-time RT-PCR (Sybr Green; BioRad) was performed using with the gene-specific primers: […]

zebrafish embryos = assay: Zebrafish embryo development (convergent extension); format: in vivo, zebrafish (danio rerio); settings: 1 μM, 1-cell stage embryos, 24 h
Experimental: Zebrafish experiments. Wild-type (AB) zebrafish strain at 1-cell stage were treated with IQ-1 at a final concentration of 1 μM in embryo medium for 24 h. Control zebrafish embryos were incubated at an equivalent concentration of DMSO. At the end of this 24 h treatment, embryos were manually dechorionated and imaged. Zebrafish embryos were maintained at 28° C. Results shown are representative of those obtained from at least 10 embryos for each group, from 2 independent experiments.

ESCs = assay: Long term feeder-free culture of ESCs in serum-free (15% KSR) media; format: cell-based, mouse
Experimental: FIG. 7. […] ESCs were cultured in 15% KSR, 4 μg/ml of IQ-1 and 100 ng/ml Wnt3a. ESCs were passaged 2-3 times per week at 1×10^5-1×10^6 cells per 6 cm dish and cells were counted.
FIG. 8. […] AP activity of ESCs cultured for 7 days in IQ-1 containing media supplemented with 15% FCS or 15% KSR. […] (Error bars represent ±S.D.)
FIG. 9. […] Over the 42-day culture period, ESCs cultured in the media in the presence of IQ-1 and Wnt3a maintain expression of the pluripotency markers, (a) Nanog, (b) Oct3/4 and (c) Rex-1. The expression level on day 0 was set as 1.
Cell culture. ESCs, D3ES (ATCC CRL-1934) were maintained on Mitomycin C treated MEFs in mouse ESC medium containing DMEM (Invitrogen) supplemented with 15% FBS (Invitrogen), 0.1 mM MEM nonessential amino acids (Invitrogen), 0.1 mM 2-mercaptoethanol (Sigma), 2 mM L-glutamine (Invitrogen) and 1,000 U/ml LIF (CHEMICON). To remove MEFs, cells were collected by trypsinization and plated on gelatin-coated culture dishes for 20 min. Non-adherent cells consisting mainly of ESCs were replated on gelatin-coated culture dishes again. Non-adherent cells were used for further experiments. P19 cells were cultured according to conditions recommended by the ATCC. Cells were incubated at 37° C. in a 5% CO2 incubator. Purified Wnt3a was purchased (R&D Systems).

[2] = test system: p300 Ser89 phosphorylation; assay: Immunoblot of p300 and phospho-serine89-p300 in P19 cells; format: cell-based; settings: Wnt3a stimulated P19 cells, 10 μM, 24 hours
Experimental: Detection of CBP, p300, and phospho-serine89-p300 in P19 cells. P19 cells exposed to either Wnt3A or vehicle control, after which IQ-1 was added to a final concentration of 10 μM. Control DMSO was 0.025%. Cells were incubated for 24 hours. At the end of this incubation period, cells were washed, lysed and subjected to SDS-PAGE. CBP and p300 were detected using the rabbit polyclonal antibody (A-22)(1:5000); and (C-20)(1:5000) (Santa Cruz), respectively. Phospho-serine89-p300 was detected using custom antisera at a dilution of 1:100.

Stat3 signaling pathway = assay: pSTAT3-TA-Luc luciferase reporter assay in ESCs; format: cell-based, mouse; settings: 24 hours exposure
Experimental: Transfection and Luciferase assay. ESCs were cultured in 96-well cell culture dishes coated with a 0.1% aqueous gelatin solution and transfected with 0.2 μg/well of pSTAT3-TA-Luc (CLONTECH), using Lipofectamine 2000 (Invitrogen). After 6 hours, cells were washed and exposed to either IQ-1 at the indicated doses, or LIF, for 24 hours. Transfection efficiencies were normalized with pRL-null luciferase plasmid. Luciferase assays were performed with the DUAL-Luciferase Reporter Assay System (Promega).

[3] = test system: TCF/β-catenin reporter in NIH-3T3 cells; assay: TOPFLASH/FOPFLASH TCF/β-catenin reporter assay in NIH-3T3 cells; format: cell-based
Experimental: (§1) NIH-3T3 cells (wt), NIH-3T3 CBP(+/−) cells and NIH-3T3 p300(+/−) cells were transfected as described in (26). Briefly, cells were transfected with TOPFLASH or FOPFLASH, using Fugene6 (Roche Molecular Biochemicals). Transfection efficiencies were normalized with pRL-null luciferase plasmid. Luciferase assays were performed with the DUAL-Luciferase Reporter Assay System (Promega).
as §1, with “In certain experiments, NIH-3T3 cells” for “NIH-3T3 cells”
The Wnt/β-catenin reporter constructs TOPFLASH and FOPFLASH in wild-type NIH-3T3 cells (wt), NIH-3T3 CBP(+/−) cells and NIH-3T3 p300(+/−) cells were used to determine whether IQ-1, by targeting the PR72/130 subunit with PP2A, was selectively increasing β-catenin's usage of CBP as a coactivator at the expense of p300, thereby maintaining the ESCs in the undifferentiated state (FIG. 4A). A point mutant constitutively translocating β-catenin (pt-mut β-cat) was used to stimulate reporter activity (28).

[4] = stimulated with pt-mut β-catenin

CC(=O)c1ccc(NN=C(C(N)=O)C2=NC(C)(C)Cc3ccccc32)cc1 [IQ-1]
Nanog level after removal of IQ-1 from culture ([1]; IQ-1 (4 μg/ml) removed for three days): precipitous drop in Nanog level
Nanog expression ([1]; feeder-free ESCs, IQ-1 4 μg/ml or LIF 1000 U/ml, 21 hrs): significantly increased and maintained Nanog expression
zebrafish embryo development (zebrafish embryos): significant developmental defects
proliferation and expression of Oct4, Nanog and Rex1, combination of Wnt3a and IQ-1 (ESCs; 15% KSR, Wnt3a 100 ng/ml plus IQ-1 4 μg/ml): allowed for proliferation and maintenance of pluripotency
time ESC proliferation and pluripotency maintained in culture (ESCs; IQ-1 in conjunction with purified Wnt3a, absence of serum): at least 48 days
maintenance of undifferentiated status of ESCs, agent alone (ESCs; KSR media, single agent): Neither Wnt3a nor IQ-1 alone was sufficient
phosphorylation level of p300 Ser89 [2]: dramatic decrease
total amount of p300 [2]: not affected
Stat3/luciferase expression (Stat3 signaling pathway): did not affect Stat3/luciferase expression
Fopflash reporter activity ([3]; NIH-3T3 cells): no effect
TOPFLASH activity, NIH-3T3 CBP (+/−) cells [3, 4]: did not affect TOPFLASH or FOPFLASH activity
TOPFLASH activity, wt NIH-3T3 cells [3, 4]: did not affect TOPFLASH or FOPFLASH activity
increase in TOPFLASH activity, NIH-3T3 p300 (+/−) cells [3, 4]: 2-3 fold
